Reference: patent publication US20050019355A1, “Skin antiseptic and disinfectant” (priority 2003, published 2005)

Tested on: E. coli (ATCC 25922)
Assay: Lower effective concentration of ethyl lactate, modification of AOAC Method 956.17
Type: cell-based
Conditions: 15% solution of ethyl lactate, 10 minutes exposure of E. coli
Protocol: Using a modification of AOAC Method 956.17, the lower effective concentration for ethyl lactate was tested against E. coli (ATCC 25922) at three reaction times at varying concentrations of ethyl lactate. […] [table]

`CCOC(=O)C(C)O` (stereo not shown) [ethyl lactate] was tested, and the “Bacterial growth after exposure” value was “eliminated bacterial growth”.
